Measured values published in ChEMBL document CHEMBL4118284, “Exploration of diphenylalkyloxadiazoles as novel cardiac myosin activator” (Bioorg Med Chem Lett, 2018).
pEC50: −log10 of the molar value.

Experiments:
Bos taurus [1] = species on record: Bos taurus; assay: Activation of actin-stimulated bovine cardiac myosin S1 fragment ATPase activity in sarcomere at 10 uM after 10 mins by spectrophotometric analysis relative to control
[2] = Activation of actin-stimulated bovine cardiac myosin S1 fragment ATPase activity in sarcomere after 10 mins by spectrophotometric analysis; set-up: species or system Bos taurus
Bos taurus [3] = species on record: Bos taurus; assay: Activation of actin-stimulated bovine cardiac myosin S1 fragment ATPase activity in sarcomere at 1 uM after 10 mins by spectrophotometric analysis relative to control
Bos taurus [4] = species on record: Bos taurus; assay: Activation of actin-stimulated bovine cardiac myosin S1 fragment ATPase activity in sarcomere at 5 uM after 10 mins by spectrophotometric analysis relative to control
Gallus gallus = species on record: Gallus gallus; assay: Activation of actin-stimulated chicken gizzard smooth muscle myosin S1 fragment ATPase activity at 100 uM after 10 mins by spectrophotometric analysis relative to control
Oryctolagus cuniculus = species on record: Oryctolagus cuniculus; assay: Activation of actin-stimulated rabbit psoas skeletal muscle myosin S1 fragment ATPase activity at 100 uM after 10 mins by spectrophotometric analysis relative to control

| SMILES | Activity (Bos taurus [1]) | pEC50 [2] | Activity (Bos taurus [3]) | Activity (Bos taurus [4]) | Activity (Gallus gallus) | Activity (Oryctolagus cuniculus) |
| --- | --- | --- | --- | --- | --- | --- |
| c1ccc(CCCCc2nnc(C3CCOCC3)o2)cc1 | 11.2% |  |  |  |  |  |
| COc1ccc(-c2nnc(CCCc3ccccc3)o2)cc1 | 37.3% |  |  |  |  |  |
| c1ccc(CCCc2nnc(CCC3CCCCC3)o2)cc1 | 58.9% | 5.46 | 30% | 53.1% | 4.5% | -2.7% |
| c1ccc(CCCNc2nnc(-c3ccncc3)o2)cc1 | 22.9% |  |  |  |  |  |
| COc1ccc(Cc2noc(CCCc3ccccc3)n2)cc1OC | 18.4% |  |  |  |  |  |
| COc1ccc(-c2nnc(NCCCc3ccccc3)o2)cc1OC | 41.7% |  |  |  |  |  |
| COC(=O)N1CCN(Cc2cccc(NC(=O)Nc3ccc(C)nc3)c2F)CC1 [OMECAMTIV MECARBIL] | 56.5% | 5.47 | 31.2% | 49.9% | -3.8% | 2.2% |
| COc1ccc(-c2noc(CCCc3ccccc3)n2)cc1OC | 46.8% |  |  |  |  |  |
| CN(C)S(=O)(=O)c1ccc(CCc2nnc(CCCc3ccccc3)o2)cc1 | 33.6% |  |  |  |  |  |
| c1ccc(CCNc2nnc(-c3ccccc3)o2)cc1 | 35.2% |  |  |  |  |  |
| Fc1ccc(Cc2nnc(CCCc3ccccc3)o2)cc1 | 4.2% |  |  |  |  |  |
| COc1ccc(-c2nnc(CCCc3ccccc3)o2)cc1OC | 40.2% |  |  |  |  |  |
| c1ccc(CCCCc2nnc(-c3ccncc3)o2)cc1 | 8.6% |  |  |  |  |  |
| COc1ccc(Cc2nnc(CCCc3ccccc3)o2)cc1OC | 16.1% |  |  |  |  |  |
| NS(=O)(=O)c1ccc(-c2nnc(NCCCc3ccccc3)o2)cc1 | 33% |  |  |  |  |  |
| c1ccc(CCCc2nnc(-c3ccncc3)o2)cc1 | 15.9% |  |  |  |  |  |
| Cc1ccc2c(c1)C(=O)[C@]1(O)CCN(c3ccccc3)C1=N2 |  |  |  |  | -37.3% | -54.1% |
| CN(C)S(=O)(=O)c1ccc(CCCc2nnc(-c3ccccc3)o2)cc1 | 11.9% |  |  |  |  |  |
| c1ccc(CCCc2nnc(C3CCOCC3)o2)cc1 | 30.8% |  |  |  |  |  |
| NS(=O)(=O)c1ccc(-c2nnc(CCCc3ccccc3)o2)cc1 | 22.5% |  |  |  |  |  |
| COc1ccc(CCc2nnc(CCCc3ccccc3)o2)cc1OC | 38.7% |  |  |  |  |  |

Further lines, results first:

| Activity (Bos taurus [1]) | pEC50 [2] | Activity (Bos taurus [3]) | Activity (Bos taurus [4]) | Activity (Gallus gallus) | Activity (Oryctolagus cuniculus) | SMILES |
| --- | --- | --- | --- | --- | --- | --- |
| 60.7% | 5.50 | 31.9% | 56.4% | -2.4% | -5.3% | c1ccc(CCCc2nc(-c3ccccc3)no2)cc1 |
| 51% | 5.35 | 29.7% | 45.3% | 4.1% | -3.1% | c1ccc(CCCc2nnc(CCc3ccccc3)o2)cc1 |
| 32.8% |  |  |  |  |  | c1ccc(CCCCNc2nnc(-c3ccccc3)o2)cc1 |
| 59.2% | 5.49 | 32.5% | 55.2% | -3.7% | -2.5% | c1ccc(CCCc2nnc(-c3ccccc3)o2)cc1 |
| 2.5% |  |  |  |  |  | c1ccc(CCCc2nnc(CCCc3ccccc3)o2)cc1 |
| 35.9% |  |  |  |  |  | c1ccc(CCCCc2nc(-c3ccccc3)no2)cc1 |
| 66.3% | 5.52 | 34.1% | 60.3% | 4.2% | 3.3% | c1ccc(CCCc2nc(Cc3ccccc3)no2)cc1 |
| 37.2% |  |  |  |  |  | CN(C)S(=O)(=O)c1ccc(CCCc2nc(-c3ccccc3)no2)cc1 |
| 50.5% | 5.28 | 28.4% | 42.6% | 2.3% | 1.9% | c1ccc(CCCNc2nnc(-c3ccccc3)o2)cc1 |
| 62.9% | 5.51 | 33.5% | 60.2% | -3.9% | 1.8% | c1ccc(CCCc2nnc(Cc3ccccc3)o2)cc1 |
